Patent publication US10150729B2, “Tranilast compositions and cocrystals” (NUFORMIX LIMITED, priority 2012, dated 2018)
Read-outs that look alike come from different tables or passages of the source.

How the values were obtained:
[1] = Solution photostability study (UV irradiation, HPLC); details: dissolved in DMSO/MeOH/water; UV light; 24 hrs
Procedure: (§1) This study explored the photostability of the 1:1 tranilast nicotinamide cocrystal, the 1:1 tranilast saccharin cocrystal, the 1:1 tranilast gentisic acid cocrystal, the 1:1 salicylic acid cocrystal, the 1:1 tranilast urea cocrystal, the 1:1 tranilast 4-aminobenzoic acid cocrystal and the 1:1 tranilast 2,4-dihydroxybenzoic acid cocrystal once dissolved in solution and to compare these with the solution photostability of pure tranilast. A 1 mg sample of crystalline tranilast and the seven cocrystal forms were each weighed into a clear glass vial. Each sample was dissolved in a mixture of DMSO (200 μl), MeOH (600 μl) and water (600 μl). The vials were placed into a Vindon Scientific Photostability cabinet and irradiated with UV light (average Klux=18.2 (18.2 Lux/hour), average UV values=2.55 watts/minute, temperature=31.0-32.0° C.). The percentage of tranilast remaining in each sample, that had not undergone degradation into the cis-isomer, dimer or any other degradation product, was determined after 24 hours using HPLC.

[2] = Solid-state photostability study (UV irradiation, HPLC); details: UV light; for photostability in the solid-state: compared to pure crystalline tranilast
Procedure: A study was, therefore, carried out to determine the solid-state photostability of the 1:1 tranilast nicotinamide cocrystal, the 1:1 tranilast saccharin cocrystal, the 1:1 tranilast gentisic acid cocrystal, the 1:1 salicylic acid cocrystal, the 1:1 tranilast urea cocrystal, the 1:1 tranilast 4-aminobenzoic acid cocrystal and the 1:1 tranilast 2,4-dihydroxybenzoic acid cocrystal and to compare this with the solid state photostability of pure crystalline tranilast. A 1-2 mg sample of crystalline tranilast and the seven cocrystal forms were each weighed and spread over the bottom surface of a clear glass vial. The vials were placed into a Vindon Scientific Photostability cabinet and irradiated with UV light (average Klux=18.2 (18.2 Lux/hour), average UV values=2.55 watts/minute, temperature=31.0-32.0° C.). The percentage of tranilast remaining in each sample, that had not undergone degradation into the cis-isomer, dimer or any other degradation product, was determined at 3, 24 and 48 hours using HPLC.

[3] = Dissolution study in purified water containing 2% SDS; type: physicochemical
Procedure: For poorly soluble drugs, such as tranilast, the rate of dissolution of the drug form used can have an impact on the overall absorption and thus bioavailability of the drug, especially for example, in the case of oral solid dosage or inhalation delivery methods. […] The dissolution experiment was carried out for tranilast and each of the cocrystal forms at a concentration equivalent to 0.4 mg tranilast/ml in purified water containing 2% SDS. This study compared the dissolution rates of the cocrystals versus pure crystalline tranilast, because of the extremely low solubility of crystalline tranilast in aqueous media, the surfactant sodium dodecyl sulfate (SDS) was added to the dissolution media to allow easier analytical detection. Samples were collected and analysed at 1, 5, 10 and 30 minute time points. The samples were analysed by HPLC using the method described in Table 10. FIG. 32 illustrates the dissolution profiles from a single dataset for each of the tranilast cocrystals alongside crystalline tranilast over the 30 minute time period in the aqueous 2% SDS solution. The dissolution data is corrected within error limits of the analytical method described (estimated at ±10%). […] Most of the cocrystals reach almost their maximum dissolution within the first minute.

[4] = Physical stability study of the cocrystal under accelerated conditions (40° C./75% RH), examined by XRPD; type: physicochemical
Procedure: X-Ray Powder Diffraction patterns at the required time points were collected on a PANalytical diffractometer using Cu Kα radiation (45 kV, 40 mA), θ-θ goniometer, focusing mirror, divergence slit (½″), soller slits at both incident and divergent beam (4 mm) and a PIXcel detector. The software used for data collection was X'Pert Data Collector, version 2.2f and the data was presented using X'Pert Data Viewer, version 1.2d. Instrument verification was performed using a silicon and benzoic acid standard, performed with the same batch program as listed below for sample analysis. Samples were run under ambient conditions and were analysed by transmission foil XRPD, using the powder as received. Approximately 2-5 mg of the sample was mounted on a 96 position sample plate supported on a polyimide (Kapton, 12.7 μm thickness) film. Plate height (Z) was set to 9 mm. Data was collected in the range 3-40° 2θ with a continuous scan (speed of 0.2° 2θ/s).
A stability study was carried out to examine the physical stability of the 1:1 tranilast nicotinamide cocrystal with respect to dissociation into its starting components over time under accelerated conditions. Approximately 1-2 mg of the 1:1 tranilast nicotinamide cocrystal was placed in seven clear glass vials. The glass vials were loosely sealed with plastic screw caps so as to provide a barrier to solid transfer but to still allow moisture equilibration with the outer environment. The vial head space above the sample was estimated to be >95% of the total vial volume. All seven samples were then placed on a tray and stored within a stability cabinet set at 40° C./75% RH. At every time point examined the XRPD pattern obtained was characteristic of the 1:1 tranilast nicotinamide cocrystal with no evidence of either of the starting materials, or any new peaks to indicate conversion to a different crystalline form. FIG. 7 illustrates the XRPD patterns obtained at the time points 0, three months and six months. FIG. 7 is an overlay of the XRPD patterns of the 1:1 tranilast nicotinamide cocrystal at those time points during a 6 month accelerated stability study at 40° C./75% RH.

[5] = buffer, 24 h
Procedure: as §1

SMILES	percentage of tranilast remaining [1]	percentage of tranilast remaining ([2]; 3 hrs)	percentage of tranilast remaining ([2]; 24 hrs)	percentage of tranilast remaining ([2]; 48 hrs)	photostability in the solid-state [2]	also measured
COc1ccc(/C=C/C(=O)Nc2ccccc2C(=O)O)cc1OC.Nc1ccc(C(=O)O)cc1	76.2%	99.8%	98.2%	99.7%	comparable photostability	–
COc1ccc(/C=C/C(=O)Nc2ccccc2C(=O)O)cc1OC.O=C1NS(=O)(=O)c2ccccc21 [1:1 Tranilast Saccharin Cocrystal]	71.0%	99.8%	99.6%	99.1%	comparable photostability	–
COc1ccc(/C=C/C(=O)Nc2ccccc2C(=O)O)cc1OC [Crystalline Tranilast, 2-[[3-(3,4-dimethoxyphenyl)-1-oxo-2-propenyl]amino] benzoic acid, reference compound]	66.2%	98.9%	99.8%	99.7%	–	dissolved ([3]; after 1 minute, 0.4 mg tranilast/ml): about 5%
COc1ccc(/C=C/C(=O)Nc2ccccc2C(=O)O)cc1OC.NC(=O)c1cccnc1 [1:1 Tranilast Nicotinamide Cocrystal]	80.2%	99.3%	99.9%	99.9%	comparable photostability	dissolution reached ([3]; within 1 minute): almost complete dissolution; XRPD Characterization ([4]; 1 month): cocrystal; XRPD Characterization ([4]; 1 week): cocrystal; XRPD Characterization ([4]; 2 months): cocrystal; XRPD Characterization ([4]; 2 week): cocrystal; XRPD Characterization ([4]; 3 months): cocrystal; XRPD Characterization ([4]; 3 week): cocrystal; XRPD Characterization ([4]; 6 months): cocrystal; physical stability with respect to dissociation or conversion to another crystalline form ([4]; six month period): stable; XRPD Characterization ([4]; time point 0): cocrystal
COc1ccc(/C=C/C(=O)Nc2ccccc2C(=O)O)cc1OC.O=C(O)c1ccccc1O [1:1 Tranilast Salicyclic Acid Cocrystal]	77.5%	99.8%	99.6%	98.7%	comparable photostability	–
COc1ccc(/C=C/C(=O)Nc2ccccc2C(=O)O)cc1OC.O=C(O)c1cc(O)ccc1O [1:1 Tranilast Gentisic Acid Cocrystal]	–	–	–	–	–	percentage of tranilast remaining [5]: 76.3%; percentage of tranilast remaining (3 h): 99.6%; percentage of tranilast remaining (24 h): 99.8%; percentage of tranilast remaining (48 h): 99.9%
COc1ccc(/C=C/C(=O)Nc2ccccc2C(=O)O)cc1OC.NC(N)=O [1:1 Tranilast Urea Cocrystal]	76.4%	99.8%	99.6%	99.9%	comparable photostability	–
